According to patent US11590129B2, “Combination therapy with an antitumor alkaloid” (PHARMA MAR, S.A., priority 2010, dated 2023):

Key:
[1] = test system: IGROV-1 human ovarian adenocarcinoma cell line; test: cells; conditions: Homo sapiens, IGROV-1, 72 h
Method: (§1) a. […] Briefly, cells were harvested and seeded in 96 well microtiter plates at a density of 5,000 cells in 150 μL of culture medium and incubated for 24 hours in drug-free medium before treatment with vehicle alone or test compounds for 72 h.
(§2) The cytotoxic effect was measured by the MTT reduction assay, in which 3-(4,5-Dimethylthiazol-2-yl)-2,5-diphenyltetrazolium bromide, a tetrazole, which is reduced to purple formazan in the mitochondria of living cells, was used. MTT (50 μL of 1 mg/mL stock solution) was added to the wells and incubated for 8 hours at 37° C. until formazan crystals were formed. After gently removing the culture medium, DMSO was added to dissolve the insoluble purple formazan product into a colored solution. […] Results were expressed as percentage of control cell growth.
(§3) b. In a second set of assays, A549 human tumor cells were incubated with PM01183 in combination with each of the agents mentioned above.
(§4) As a visual aid, response values were plotted on a scatter plot with dose ratios given on the x-axis and % response values on the y-axis. […] In cases where response values at the two endpoints were approximately equivalent, points lying above or below this predicted line of additivity could be interpreted as representing antagonistic or synergistic drug interaction, respectively.
(§5) Additional serial dilutions were prepared in serum-free culture medium to achieve a final 4× concentration. Aliquots of 50 μL of each diluted compound were added per well.
IGROV-1 was the human ovarian adenocarcinoma cell line selected for this assay.

A2780 tumors = test: Human ovarian tumor xenografts (A2780) in athymic nude mice, tumor volume % T/C; assay type: in vivo
Method: Female athymic nude mice (Harlan Laboratories Models, S.L. (Barcelona, Spain) were utilized for all experiments. Animals were housed in individually ventilated cages, up to ten per cage in a 12-hour light-dark cycle at 21-23° C. and 40-60% humidity. The mice were allowed free access to irradiated standard rodent diet and sterilized water. Animals were acclimated for at least 5 days prior to tumor implantation with a tumor cell suspension.
The formula to calculate volume for a prolate ellipsoid was used to estimate tumor volume (mm^3) from 2-dimensional tumor measurements: Tumor volume (mm^3)=[L×W^2]÷2, where L is the length and it is the longest diameter in mm, and W is the width and it is the shortest diameter in mm of a tumor. Assuming unit density, volume was converted to weight (i.e., 1 mm^3=1 mg). Tumor volume and animal body weights were measured 2-3 times per week starting form the first day of treatment (Day 0).
PM01183 was provided in the form of vials of lyophilized PM01183 cake which was reconstituted with water for infusion to a concentration of 0.2 mg/mL. The PM01183 stock solution was further diluted in 5% glucose solution for injection to the dosing formulation concentrations. […] Vinorelbine was provided as a solution prepared by diluting the product with 0.9% saline solution.
Dose level groups were administered either as single agents or in combination.
Comparison of the median tumor volume in the treatment groups (T) to the median tumor volume in the control group (T/C×100%) was used for evaluation of the antitumor efficacy.
Day 9 for PM01183 and vinorelbine study) using the median-effect principle (Chou T. C. Pharmacol. Rev.

[2] = test system: PC-3 human prostate cancer cell line; test: cells; conditions: Homo sapiens, PC-3, 72 h
Method: as §1, §2, §3, §4, §5
PC-3 was the human prostate adenocarcinome cell line selected for this assay.

[3] = test system: HepG2 human hepatocellular liver carcinoma cell line; test: MTT cytotoxicity assay in HepG2 cells: IC50 of single agents and combinations with PM01183; assay type: cell-based; conditions: Homo sapiens, HepG2, 72 h
Method: as §1, §2, §3, §4, §5
HepG2 was the human hepatocellular liver carcinoma cell line selected for this assay.

[4] = test system: U87-MG human glioblastoma cell line; test: cells; conditions: Homo sapiens, U-87 MG, 72 h
Method: as §1, §2, §3, §4, §5
U87-MG was the human glioblastoma cell line selected for this assay.

[5] = test system: SK-MEL-2 human melanoma cell line; test: cells; conditions: Homo sapiens, SK-MEL-2, 72 h
Method: as §1, §2, §3, §4, §5
SK-MEL-2 was the human melanoma cell line selected for this assay.

[6] = test system: HGC-27 human gastric carcinoma cell line; test: cells; conditions: Homo sapiens, HGC-27, 72 h
Method: as §1, §2, §3, §4, §5
HGC-27 was the human gastric carcinoma cell line selected for this assay.

[7] = test system: RXF-393 human kidney carcinoma cell line; test: cells; conditions: Homo sapiens, RXF 393, 72 h
Method: as §1, §2, §3, §4, §5

[8] = test system: MDA-MB-231 human breast adenocarcinoma cell line; test: cells; conditions: Homo sapiens, MDA-MB-231, 72 h
Method: as §1, §2, §3, §4, §5

[9] = test system: PANC-1 human pancreatic carcinoma cell line; test: cells; conditions: Homo sapiens, PANC-1, 72 h
Method: as §1, §2, §3, §4, §5
PANC-1 was the human pancreatic carcinoma cell line selected for this assay.

[10] = test system: HT-29 human colon adenocarcinoma cell line; test: cells; conditions: Homo sapiens, HT-29, 72 h
Method: as §1, §2, §3, §4, §5
HT-29 was the human colon adenocarcinoma cell line selected for this assay.

[11] = test system: A673 human rhabdomyosarcoma cell line; test: cells; conditions: Homo sapiens, A673, 72 h
Method: as §1, §2, §3, §4, §5
A673 was the human rhabdomyosarcoma cell line selected for this assay.

[12] = test system: RAMOS human lymphoma cell line; test: cells; conditions: Homo sapiens, Ramos, 72 h
Method: Briefly, cells were seeded in 96 well microtiter plates at a density of 50000 cells per well in 150 μL of culture medium and incubated for 4-6 hours in drug-free medium before treatment with vehicle alone or test compounds for 72 hours.
After incubation, the cytotoxic effect was evaluated using a MTT reduction assay. 50 μL of MTT solution (1 mg/mL) were added to the wells and incubated for 15-17 hours at 37° C. until formazan crystals were formed. After gently removing the culture medium, DMSO was added to dissolve the insoluble purple formazan product into a colored solution. […] Results were expressed as percentage of control cell growth. The EC50 values (half-maximal effective concentration) used for the combination studies were calculated using Prism v5.02 software (GraphPad). EC50 was expressed as molar concentration and represented the mean of at least three independent assays.
Using these starting concentrations, constant serial dilutions were performed to generate the concentration-response curves for each set of drugs, alone and in combination.
Based on this equation, the term “combination index” (CI) is used as a quantitative measure of the degree of drug interactions. […] CI values were calculated by solving the equation for different values of fa (i.e., for different degrees of cell groth inhibition).
Data were analyzed using CalcuSyn software (Biosoft, Cambridge, UK). For statistical analysis and graphs Prism software (GraphPad, San Diego, USA) was used. All the results represent the mean of at least three independent experiments.
as §5
In the second set of assays, concentration-response curves for the agents tested, both alone and in two-drug combination, were performed.

[13] = test system: A549 human lung carcinoma cell line; test: MTT cytotoxicity assay in A549 cells: IC50 of single agents and combinations with PM01183; assay type: cell-based; conditions: Homo sapiens; A549, 72 hours drug exposure, MTT; read-out: IC50
Method: as §5
A549 was the human lung carcinoma cell line selected for this assay.
as §1, §2, §3, §4

[14] = doxorubicin 2.0 mg/kg iv days 0,7
[15] = doxorubicin 4.0 mg/kg iv days 0,7
[16] = doxorubicin 6.0 mg/kg iv days 0,7
[17] = doxorubicin 8.0 mg/kg iv days 0,7

SMILES: COc1cccc2c1C(=O)c1c(O)c3c(c(O)c1C2=O)C[C@@](O)(C(=O)CO)C[C@@H]3O[C@H]1C[C@H](N)[C@H](O)[C@H](C)O1 [Doxorubicin, doxorubicin]
- IC50 [1]: 0.259 µM
- % T/C on day 0 (A2780 tumors; [14]): 99.8%
- % T/C on day 3 (A2780 tumors; [14]): 91.5%
- % T/C on day 5 (A2780 tumors; [14]): 93.1%
- % T/C on day 7 (A2780 tumors; [14]): 94.2%
- % T/C on day 10 (A2780 tumors; [14]): 86.2%
- % T/C on day 0 (A2780 tumors; [15]): 102.0%
- % T/C on day 3 (A2780 tumors; [15]): 82.9%
- % T/C on day 5 (A2780 tumors; [15]): 75.1%
- % T/C on day 7 (A2780 tumors; [15]): 75.0%
- % T/C on day 0 (A2780 tumors; [16]): 99.4%
- % T/C on day 3 (A2780 tumors; [16]): 71.0%
- % T/C on day 5 (A2780 tumors; [16]): 60.3%
- % T/C on day 7 (A2780 tumors; [16]): 56.8%
- % T/C on day 10 (A2780 tumors; [16]): 54.3%
- % T/C on day 0 (A2780 tumors; [17]): 99.5%
- % T/C on day 3 (A2780 tumors; [17]): 60.8%
- % T/C on day 5 (A2780 tumors; [17]): 49.8%
- % T/C on day 7 (A2780 tumors; [17]): 48.1%
- % T/C on day 10 (A2780 tumors; [17]): 39.4%
- IC50 [2]: 1.48 µM
- IC50 [3]: 0.2 µM
- IC50 [4]: 0.3 µM
- IC50 [5]: 0.3 µM
- IC50 [6]: 0.054 µM
- IC50 [7]: 0.8 µM
- IC50 [8]: 0.6 µM
- IC50 [9]: 3.45 µM
- IC50 [10]: 0.9 µM

SMILES: Nc1ccn([C@@H]2O[C@H](CO)[C@@H](O)[C@@H]2O)c(=O)n1 [Cytarabine, cytarabine]
- IC50 [1]: 11.7 µM
- IC50 [2]: 40 µM
- IC50 [11]: 0.197 µM
- IC50 [3]: 20.6 µM
- IC50 [5]: 3.89 µM
- EC50 [12]: 0.0364 µM
- IC50 [6]: 50 µM
- IC50 [7]: 50 µM
- IC50 [8]: 9.57 µM
- IC50 [9]: 90 µM
- IC50 [10]: 7.8 µM

SMILES: CO[C@H]1C[C@@H]2CC[C@@H](C)[C@@](O)(O2)C(=O)C(=O)N2CCCC[C@H]2C(=O)O[C@H]([C@H](C)C[C@@H]2CC[C@@H](OC(=O)C(C)(CO)CO)[C@H](OC)C2)CC(=O)[C@H](C)/C=C(\C)[C@@H](O)[C@@H](OC)C(=O)[C@H](C)C[C@H](C)/C=C/C=C/C=C/1C [Temsirolimus, temsirolimus]
- IC50 [1]: 0.127 µM
- IC50 [2]: 0.5 µM
- IC50 [13]: 3.29 µM
- IC50 [11]: 1 µM
- IC50 [4]: 3.5 µM
- IC50 [5]: 50 µM
- IC50 [6]: 0.15 µM
- IC50 [8]: 12 µM
- IC50 [9]: 10 µM
- IC50 [10]: 3.5 µM
